Measured values reported in patent publication US10792373B2, “Drug delivery polymers and uses thereof” (priority 2016, dated 2020).

Experiments:
[1] = tested on: Eμ-Myc p19Arf−/− lymphoma cells; test: RNAi signature assay (GFP-tagged shRNAs, flow cytometry); type: cell-based, murine; conditions: drug dosed to kill 80-90% of cells at 48 h; GFP positivity at 72 h
Method: RNAi signatures were performed as described previously^2-4. Briefly, Eμ-Myc p19^Arf−/− lymphoma cells were infected at about 30% with GFP-tagged shRNAs. The cells were then treated with drug to kill 80-90% of cells as judged by propidium iodide exclusion via flow cytometry at 48 h. At 72 h, GFP positivity was assessed via flow cytometry. Constrained linear regression was performed in Stata using least-squares fit with individual drug treatments as the predictor variables and the combination signatures as the response variables. The linear regression was constrained such that the sum of the predictor variables had to equal one and none could be negative.
(§1) Eμ-Myc p19Arf−/− lymphoma cells were infected at about 30% with GFP-tagged shRNAs. The cells were then treated with drug to kill 80-90% of cells as judged by propidium iodide exclusion via flow cytometry at 48 h. At 72 h GFP positivity was assessed via flow cytometry. Using the RNAi signature approach, the free drug, prodrug, single-drug-conjugated BASPs, and multi-drug conjugated BASPs illustrated in FIGS. 9A-9C were characterized. […] Next, the RNAi signatures for each of the free drugs and their corresponding prodrug monomers and BASPs were plotted (FIG. 20E) using principal component analysis (PCA). PCA is a means of representing the variance in a multi-dimensional dataset in fewer dimensions. […] One hypothesis that may explain the observed difference between the cisplatin and oxaliplatin prodrug mechanisms is related to the ligand lability of these species. Inside the cell, where the concentration of chloride ions is much lower than in the extracellular milieu (2 to 30 mM for the former compared to ˜100 mM for the latter), the weakly bound chloride ligands of free cisplatin are replaced with aquo ligands. This diaquo species induces cytotoxic inter- or intra-strand DNA cross-links. […] Additionally, utilizing a CisPt-DNA adduct specific antibody, the genomic DNA isolated from murine lymphoma cells after 8 h of drug treatment was analyzed. […]

Top1 = biological target: T1, Top1 (Mus musculus, UniProt Q04750); test: GFP competition assay with validated Top1 shRNA; type: cell-based, murine
T1 construct: Eμ-Myc p19Arf−/− lymphoma cells were infected at about 30% with GFP-tagged shRNAs; endogenous in cells; host or cells: Eμ-Myc p19Arf-/- murine lymphoma cells
T1 sequence (Q04750 1-767): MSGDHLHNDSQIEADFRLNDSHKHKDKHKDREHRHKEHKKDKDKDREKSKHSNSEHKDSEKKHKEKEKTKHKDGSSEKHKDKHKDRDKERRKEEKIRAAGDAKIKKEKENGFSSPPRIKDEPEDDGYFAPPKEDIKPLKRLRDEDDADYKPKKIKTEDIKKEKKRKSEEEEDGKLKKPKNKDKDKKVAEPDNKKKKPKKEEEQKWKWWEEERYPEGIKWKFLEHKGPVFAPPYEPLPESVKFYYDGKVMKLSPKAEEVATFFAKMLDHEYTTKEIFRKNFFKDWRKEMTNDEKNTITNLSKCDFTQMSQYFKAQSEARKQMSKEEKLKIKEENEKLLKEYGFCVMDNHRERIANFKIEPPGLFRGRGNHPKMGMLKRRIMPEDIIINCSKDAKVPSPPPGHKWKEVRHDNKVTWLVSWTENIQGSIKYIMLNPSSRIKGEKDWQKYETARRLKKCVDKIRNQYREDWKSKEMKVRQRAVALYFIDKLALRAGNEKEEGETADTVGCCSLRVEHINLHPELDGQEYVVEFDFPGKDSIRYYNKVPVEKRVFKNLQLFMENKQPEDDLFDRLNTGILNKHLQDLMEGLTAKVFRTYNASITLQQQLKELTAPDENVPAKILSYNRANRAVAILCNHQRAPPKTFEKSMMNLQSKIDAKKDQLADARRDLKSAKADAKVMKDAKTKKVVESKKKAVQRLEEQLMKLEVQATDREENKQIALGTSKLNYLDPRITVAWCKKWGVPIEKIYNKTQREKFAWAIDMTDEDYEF
Method: (§2) Eμ-Myc p19Arf−/− lymphoma cells were infected at about 30% with GFP-tagged shRNAs. The cells were then treated with drug to kill 80-90% of cells as judged by propidium iodide exclusion via flow cytometry at 48 h. At 72 h GFP positivity was assessed via flow cytometry. Using the RNAi signature approach, the free drug, prodrug, single-drug-conjugated BASPs, and multi-drug conjugated BASPs illustrated in FIGS. 9A-9C were characterized. […] Next, the RNAi signatures for each of the free drugs and their corresponding prodrug monomers and BASPs were plotted (FIG. 20E) using principal component analysis (PCA). PCA is a means of representing the variance in a multi-dimensional dataset in fewer dimensions. […] Inside the cell, where the concentration of chloride ions is much lower than in the extracellular milieu (2 to 30 mM for the former compared to ˜100 mM for the latter), the weakly bound chloride ligands of free cisplatin are replaced with aquo ligands. This diaquo species induces cytotoxic inter- or intra-strand DNA cross-links.

Top2A = biological target: T2, Top2A (Mus musculus, UniProt Q01320); test: GFP competition assay with validated Top2A shRNA; type: cell-based, murine
T2 construct: Eμ-Myc p19Arf−/− lymphoma cells were infected at about 30% with GFP-tagged shRNAs; endogenous in cells; host or cells: Eμ-Myc p19Arf-/- murine lymphoma cells
Method: as §2

[2] = tested on: genomic DNA isolated from murine lymphoma cells; test: Cisplatin-DNA adduct detection with a CisPt-DNA adduct specific antibody; type: cell-based; conditions: after 8 h of drug treatment
Method: as §1

T2 sequence (Q01320 whole entry): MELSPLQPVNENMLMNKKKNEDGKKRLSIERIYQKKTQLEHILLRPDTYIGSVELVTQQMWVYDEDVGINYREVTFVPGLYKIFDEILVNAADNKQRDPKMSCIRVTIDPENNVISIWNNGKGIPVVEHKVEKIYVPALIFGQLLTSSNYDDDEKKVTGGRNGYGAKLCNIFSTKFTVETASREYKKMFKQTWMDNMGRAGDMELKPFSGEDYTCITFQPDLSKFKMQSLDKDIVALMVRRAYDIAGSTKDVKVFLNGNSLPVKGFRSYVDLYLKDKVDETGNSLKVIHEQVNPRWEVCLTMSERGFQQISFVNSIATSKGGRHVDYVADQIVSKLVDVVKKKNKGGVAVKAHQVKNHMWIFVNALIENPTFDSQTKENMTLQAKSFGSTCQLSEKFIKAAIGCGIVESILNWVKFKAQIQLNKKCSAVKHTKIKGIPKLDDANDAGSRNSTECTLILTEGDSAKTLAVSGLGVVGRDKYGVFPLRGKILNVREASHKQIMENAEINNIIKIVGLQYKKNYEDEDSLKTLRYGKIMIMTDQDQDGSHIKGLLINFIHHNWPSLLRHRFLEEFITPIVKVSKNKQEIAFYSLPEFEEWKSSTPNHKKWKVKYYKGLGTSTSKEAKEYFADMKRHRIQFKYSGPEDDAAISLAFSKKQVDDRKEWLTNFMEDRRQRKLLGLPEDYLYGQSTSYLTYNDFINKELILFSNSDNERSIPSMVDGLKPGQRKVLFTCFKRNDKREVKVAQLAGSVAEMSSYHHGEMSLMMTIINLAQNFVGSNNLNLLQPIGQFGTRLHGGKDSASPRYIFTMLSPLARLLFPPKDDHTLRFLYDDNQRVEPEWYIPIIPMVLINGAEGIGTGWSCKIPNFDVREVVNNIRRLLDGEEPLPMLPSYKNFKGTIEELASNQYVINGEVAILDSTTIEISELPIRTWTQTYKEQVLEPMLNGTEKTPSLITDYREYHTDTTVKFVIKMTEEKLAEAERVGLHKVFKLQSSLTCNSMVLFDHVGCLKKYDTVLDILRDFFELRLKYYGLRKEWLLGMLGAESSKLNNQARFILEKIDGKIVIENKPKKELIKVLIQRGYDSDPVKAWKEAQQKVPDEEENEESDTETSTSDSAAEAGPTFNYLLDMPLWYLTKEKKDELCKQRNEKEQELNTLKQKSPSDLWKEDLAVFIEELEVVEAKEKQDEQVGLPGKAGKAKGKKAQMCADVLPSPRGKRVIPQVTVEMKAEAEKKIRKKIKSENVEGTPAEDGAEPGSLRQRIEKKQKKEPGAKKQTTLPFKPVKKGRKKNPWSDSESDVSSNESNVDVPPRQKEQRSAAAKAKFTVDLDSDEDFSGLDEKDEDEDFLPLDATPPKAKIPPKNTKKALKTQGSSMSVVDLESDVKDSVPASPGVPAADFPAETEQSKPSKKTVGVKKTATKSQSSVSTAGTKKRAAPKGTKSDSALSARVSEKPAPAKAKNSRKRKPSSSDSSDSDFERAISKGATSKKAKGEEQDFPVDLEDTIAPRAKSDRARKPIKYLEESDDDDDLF

SMILES: CC[C@@]1(O)C(=O)OCc2c1cc1n(c2=O)Cc2cc3ccccc3nc2-1 [CPT, camptothecin]
- RNAi signature classification (mechanism of action) [1]: Topoisomerase I (Top1) poisons
- response of cells with knockdown of Top1 (Top1): resistance
- response of cells harboring the Top2A shRNA (Top2A): sensitivity

SMILES: N.N.[Cl][Pt][Cl] [CisPt, cisplatin]
- Cisplatin-DNA adducts [2]: detected

SMILES: COc1cccc2c1C(=O)c1c(O)c3c(c(O)c1C2=O)C[C@@](O)(C(=O)CO)C[C@@H]3O[C@H]1C[C@H](N)[C@H](O)[C@H](C)O1 [DOX, doxorubicin]
- RNAi signature classification (mechanism of action) [1]: Topoisomerase II (Top2) poison
- response of cells with knockdown of Top1 (Top1): sensitivity
- response of cells harboring the Top2A shRNA (Top2A): resistant

SMILES: O=C1[O][Pt]2([NH][C@@H]3CCCC[C@H]3[NH]2)[O]C1=O [OxPt, oxaliplatin]
- RNAi signature classification (mechanism of action) [1]: transcription/translation inhibitors
